Test results: the supplement of paper PMC10307832

Columns and labels:
Assay in all cases: relative viability (nuclei count vs DMSO), 5 days (fraction); higher = more cells survive
COR-L23 = system: COR-L23
Summary of the method: (§1)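 A single step with final 0.05% Triton X-100, 1% formaldehyde and 1 ug/ml Hoechst fixed the cells and stained nuclei 5 days after treatment. Lung cancer cell lines in 1536-well plates had been treated by pin tool the day after seeding with one drug alone or a fixed anchor-drug dose plus five library-drug doses (not always all listed) in √10 steps, and nuclei were counted on 4× images. Relative viability is the ratio of nuclei in treated wells to nuclei in vehicle wells, taken as the median of duplicate plates.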

ChaGo-K-1 = system: ChaGo-K-1
Summary of the method: as §1

EMC-BAC-2 = system: EMC-BAC-2
Summary of the method: as §1

EPLC-272H = system: EPLC-272H
Summary of the method: as §1

HCC-44 = system: HCC-44
Summary of the method: as §1

HOP-62 = system: HOP-62
Summary of the method: as §1

LCLC-103H = system: LCLC-103H
Summary of the method: as §1

LK-2 = system: LK-2
Summary of the method: as §1

NCI-H1355 = system: NCI-H1355
Summary of the method: as §1

NCI-H1666 = system: NCI-H1666
Summary of the method: as §1

NCI-H1944 = system: NCI-H1944
Summary of the method: as §1

NCI-H1975 = system: NCI-H1975
Summary of the method: as §1

NCI-H2023 = system: NCI-H2023
Summary of the method: as §1

NCI-H2087 = system: NCI-H2087
Summary of the method: as §1

NCI-H2126 = system: NCI-H2126
Summary of the method: as §1

NCI-H2228 = system: NCI-H2228
Summary of the method: as §1

NCI-H2405 = system: NCI-H2405
Summary of the method: as §1

NCI-H3122 = system: NCI-H3122
Summary of the method: as §1

NCI-H322M = system: NCI-H322M
Summary of the method: as §1

NCI-H441 = system: NCI-H441
Summary of the method: as §1

NCI-H460 = system: NCI-H460
Summary of the method: as §1

NCI-H596 = system: NCI-H596
Summary of the method: as §1

PC-14 = system: PC-14
Summary of the method: as §1

SW 1573 = system: SW 1573
Summary of the method: as §1

SW 900 = system: SW 900
Summary of the method: as §1

`Nc1cccc2c1CN(C1CCC(=O)NC1=O)C2=O` (stereo not given) [Lenalidomide] + N=C(N)NC(=N)NCCc1ccccc1 [Phenformin] (partner 250 µM) gave a relative viability (COR-L23; first compound 0.253 µM) of 0.412, a relative viability (COR-L23; first compound 0.8 µM) of 0.412 and a relative viability (COR-L23; first compound 2.53 µM) of 0.508. It also gave a relative viability (COR-L23; first compound 8 µM) of 0.45, a relative viability (ChaGo-K-1; first compound 0.253 µM) of 0.497 and a relative viability (ChaGo-K-1; first compound 0.8 µM) of 0.459. For the same molecule, the relative viability (ChaGo-K-1; first compound 2.53 µM) was 0.636, the relative viability (ChaGo-K-1; first compound 8 µM) was 0.478 and the relative viability (EMC-BAC-2; first compound 0.253 µM) was 0.527. The relative viability (EMC-BAC-2; first compound 0.8 µM) was 0.525, the relative viability (EMC-BAC-2; first compound 2.53 µM) was 0.598 and the relative viability (EMC-BAC-2; first compound 8 µM) was 0.459. For the same molecule, the relative viability (EPLC-272H; first compound 0.253 µM) was 0.282, the relative viability (EPLC-272H; first compound 0.8 µM) was 0.341 and the relative viability (EPLC-272H; first compound 2.53 µM) was 0.318. It also gave a relative viability (EPLC-272H; first compound 8 µM) of 0.224, a relative viability (HCC-44; first compound 0.253 µM) of 0.272 and a relative viability (HCC-44; first compound 2.53 µM) of 0.184. For the same molecule, the relative viability (HCC-44; first compound 8 µM) was 0.216, the relative viability (HOP-62; first compound 0.253 µM) was 0.611 and the relative viability (HOP-62; first compound 0.8 µM) was 0.733. The relative viability (HOP-62; first compound 2.53 µM) was 0.736, the relative viability (HOP-62; first compound 8 µM) was 0.705 and the relative viability (LCLC-103H; first compound 0.253 µM) was 0.364. For the same molecule, the relative viability (LCLC-103H; first compound 0.8 µM) was 0.327, the relative viability (LCLC-103H; first compound 2.53 µM) was 0.352 and the relative viability (LCLC-103H; first compound 8 µM) was 0.257. For the same molecule, the relative viability (LK-2; first compound 0.253 µM) was 0.575, the relative viability (LK-2; first compound 0.8 µM) was 0.262 and the relative viability (LK-2; first compound 2.53 µM) was 0.656. It also gave a relative viability (LK-2; first compound 8 µM) of 0.229, a relative viability (NCI-H1355; first compound 0.253 µM) of 0.485 and a relative viability (NCI-H1355; first compound 2.53 µM) of 0.462. It also gave a relative viability (NCI-H1355; first compound 8 µM) of 0.399, a relative viability (NCI-H1666; first compound 0.253 µM) of 0.331 and a relative viability (NCI-H1666; first compound 2.53 µM) of 0.635. For the same molecule, the relative viability (NCI-H1666; first compound 8 µM) was 0.527, the relative viability (NCI-H1944; first compound 0.253 µM) was 0.213 and the relative viability (NCI-H1944; first compound 0.8 µM) was 0.191. For the same molecule, the relative viability (NCI-H1944; first compound 2.53 µM) was 0.223, the relative viability (NCI-H1944; first compound 8 µM) was 0.174 and the relative viability (NCI-H1975; first compound 0.253 µM) was 0.402. The relative viability (NCI-H1975; first compound 0.8 µM) was 0.35, the relative viability (NCI-H1975; first compound 2.53 µM) was 0.474 and the relative viability (NCI-H1975; first compound 8 µM) was 0.336. The relative viability (NCI-H2023; first compound 0.253 µM) was 0.405, the relative viability (NCI-H2023; first compound 0.8 µM) was 0.522 and the relative viability (NCI-H2023; first compound 2.53 µM) was 0.431. For the same molecule, the relative viability (NCI-H2023; first compound 8 µM) was 0.407, the relative viability (NCI-H2087; first compound 0.253 µM) was 0.416 and the relative viability (NCI-H2087; first compound 0.8 µM) was 0.372. The relative viability (NCI-H2087; first compound 2.53 µM) was 0.505, the relative viability (NCI-H2087; first compound 8 µM) was 0.477 and the relative viability (NCI-H2126; first compound 0.253 µM) was 0.552. For the same molecule, the relative viability (NCI-H2126; first compound 0.8 µM) was 0.517, the relative viability (NCI-H2126; first compound 2.53 µM) was 0.531 and the relative viability (NCI-H2126; first compound 8 µM) was 0.458. For the same molecule, the relative viability (NCI-H2228; first compound 0.253 µM) was 0.273, the relative viability (NCI-H2228; first compound 0.8 µM) was 0.327 and the relative viability (NCI-H2228; first compound 2.53 µM) was 0.27. For the same molecule, the relative viability (NCI-H2228; first compound 8 µM) was 0.264, the relative viability (NCI-H2405; first compound 0.253 µM) was 0.382 and the relative viability (NCI-H2405; first compound 0.8 µM) was 0.416. It also gave a relative viability (NCI-H2405; first compound 2.53 µM) of 0.416, a relative viability (NCI-H2405; first compound 8 µM) of 0.351 and a relative viability (NCI-H3122; first compound 0.253 µM) of 0.379. The relative viability (NCI-H3122; first compound 0.8 µM) was 0.387, the relative viability (NCI-H3122; first compound 2.53 µM) was 0.395 and the relative viability (NCI-H3122; first compound 8 µM) was 0.457. For the same molecule, the relative viability (NCI-H322M; first compound 0.253 µM) was 0.801, the relative viability (NCI-H322M; first compound 0.8 µM) was 0.894 and the relative viability (NCI-H322M; first compound 2.53 µM) was 0.863. For the same molecule, the relative viability (NCI-H322M; first compound 8 µM) was 0.846, the relative viability (NCI-H441; first compound 0.253 µM) was 0.827 and the relative viability (NCI-H441; first compound 0.8 µM) was 0.958. For the same molecule, the relative viability (NCI-H441; first compound 2.53 µM) was 0.949, the relative viability (NCI-H441; first compound 8 µM) was 0.613 and the relative viability (NCI-H460; first compound 0.253 µM) was 0.462. The relative viability (NCI-H460; first compound 0.8 µM) was 0.522, the relative viability (NCI-H460; first compound 2.53 µM) was 0.671 and the relative viability (NCI-H460; first compound 8 µM) was 0.563. For the same molecule, the relative viability (NCI-H596; first compound 0.253 µM) was 0.752, the relative viability (NCI-H596; first compound 2.53 µM) was 0.911 and the relative viability (NCI-H596; first compound 8 µM) was 0.635. For the same molecule, the relative viability (PC-14; first compound 0.253 µM) was 0.637, the relative viability (PC-14; first compound 0.8 µM) was 0.454 and the relative viability (PC-14; first compound 2.53 µM) was 0.606. The relative viability (PC-14; first compound 8 µM) was 0.548, the relative viability (SW 1573; first compound 0.253 µM) was 0.432 and the relative viability (SW 1573; first compound 0.8 µM) was 0.43. For the same molecule, the relative viability (SW 1573; first compound 2.53 µM) was 0.347, the relative viability (SW 1573; first compound 8 µM) was 0.345 and the relative viability (SW 900; first compound 0.253 µM) was 0.583. It also gave a relative viability (SW 900; first compound 2.53 µM) of 0.747 and a relative viability (SW 900; first compound 8 µM) of 0.688.
